PubChem BioAssay (NCI)
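Assay format: 96-well plates, 48-hour exposure. At the TGI there is no net growth.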

What was measured:
Test in all cases: NCI tumour cell line growth inhibition, 48 h
SK-MEL-28 melanoma = system: SK-MEL-28 melanoma
NCI-H23 lung = system: NCI-H23 lung
SNB-75 CNS = system: SNB-75 CNS
K-562 leukemia = system: K-562 leukemia
SK-MEL-5 melanoma = system: SK-MEL-5 melanoma
HCC-2998 colon = system: HCC-2998 colon
RXF 393 renal = system: RXF 393 renal
IGROV1 ovarian = system: IGROV1 ovarian
SNB-19 CNS = system: SNB-19 CNS
NCI-H522 lung = system: NCI-H522 lung
CCRF-CEM leukemia = system: CCRF-CEM leukemia
U251 CNS = system: U251 CNS
UO-31 renal = system: UO-31 renal
HCT-15 colon = system: HCT-15 colon
NCI-H226 lung = system: NCI-H226 lung
CAKI-1 renal = system: CAKI-1 renal
NCI/ADR-RES ovarian = system: NCI/ADR-RES ovarian
SK-OV-3 ovarian = system: SK-OV-3 ovarian
DMS 114 small cell lung = system: DMS 114 small cell lung
MDA-MB-435 = system: MDA-MB-435

Compound | TGI (SK-MEL-28 melanoma) [µM] | TGI (NCI-H23 lung) [µM] | TGI (SNB-75 CNS) [µM] | TGI (K-562 leukemia) [µM] | TGI (SK-MEL-5 melanoma) [µM] | TGI (HCC-2998 colon) [µM] | TGI (RXF 393 renal) [µM] | TGI (IGROV1 ovarian) [µM] | TGI (SNB-19 CNS) [µM] | TGI (NCI-H522 lung) [µM] | TGI (CCRF-CEM leukemia) [µM] | TGI (U251 CNS) [µM] | TGI (UO-31 renal) [µM] | TGI (HCT-15 colon) [µM] | TGI (NCI-H226 lung) [µM] | TGI (CAKI-1 renal) [µM] | TGI (NCI/ADR-RES ovarian) [µM] | TGI (SK-OV-3 ovarian) [µM] | TGI (DMS 114 small cell lung) [µM] | TGI (MDA-MB-435) [µM]
CC1(C)N=C(N)N=C(N)N1c1ccc(CCc2ccccc2)cc1 | > 86.7 | > 100 | > 94.3 | > 100 | 9.63 | 42.1 | > 100 | 5.28 | > 41.1 | 33.9 | > 100 | > 100 | > 100 | > 100 | 59.3 | > 100 | > 100 | > 100 | 52.5 | –
O=c1cnn(C/C=C/CO)c(=O)[nH]1 | > 100 | > 100 | > 100 | > 100 | > 100 | > 100 | > 100 | > 100 | > 100 | > 100 | > 100 | > 100 | > 100 | > 100 | > 100 | > 100 | > 100 | – | – | > 100
